Data on ten molecules can be found in US20250136608A1, “COMPOUNDS CONTAINING A GEM-DIFLUORIDE GROUP AND PREPARATION METHOD AND USE THEREOF” (CGENETECH (SUZHOU, CHINA) CO., LTD, priority 2022, published 2025).

Data set [1] can be described thus: Oral pharmacokinetic test in mice. Particulars: male, C57, mouse, in vivo, 10 mg/kg.
The next data set deals with JAK3 (Homo sapiens, UniProt P52333). Briefly: JAK3 kinase inhibitory activity test (HTRF). Particulars: JAK3 0.1 ng/μL, ATP 3 μM, substrate 1 μM, 3 h. The class given is biochemical.
The nature of a further data set: in vivo. Particulars: male, C57, mouse, po.

Usually AUC(0-inf) stands for total exposure, with the tail of the curve extrapolated. Low values mean less exposure, high ones more exposure. What is called AUC(0-t) is exposure summed from dosing to a finite time, without extrapolation to infinity. Higher therefore signals high exposure. A word on the Cmax: it is the highest concentration seen after dosing. The MRT inf is the average time that molecules of a dose stay in the body. One may read the MRT last as a mean duration of stay, worked out from the concentration-time curve. A word on the Tmax: it is the time at which the peak concentration occurs. The term half-life denotes how long it takes for the measured level to halve. For `N#CCC1(n2cc(-c3ncnc4[nH]ccc34)cn2)CCC(F)(F)CC1` [Compound 1], in data set [1], the AUC(0-inf) stood at 2150 ng·h/mL, the AUC(0-t) turned out to be 2130 ng·h/mL, the highest level (Cmax) was 1480 ng/mL and the mean residence time (MRT inf) was 81 min. Also, in data set [1], the MRT last came out at 75 min, the Tmax came out at 19.8 min and the half-life was 70.8 min.

Usually IC50 stands for the midpoint of a concentration-inhibition curve. A high value points to weaker potency. Molecule `N#CCC1(n2cc(-c3ncnc4[nH]ccc34)cn2)CCC(C(F)(F)F)CC1` (centres unmarked) [Compound 3] gave an IC50 against JAK3 of 151 nM.

As for `N#CCC(C1CCC(F)(F)CC1)n1cc(-c2ncnc3[nH]ccc23)cn1` (centres unmarked) [Compound 4], it took 402 nM to reach half-maximal inhibition against JAK3 (IC50).

As to `N#CCC(C1CCC(C(F)(F)F)CC1)n1cc(-c2ncnc3[nH]ccc23)cn1` (centres unmarked) [Compound 5], 488 nM corresponded to half-maximal inhibition against JAK3 (IC50). For the same molecule, in the data set “in vivo” (10 mg/kg), the AUC(0-inf) amounted to 2000 ng·h/mL, the AUC(0-t) amounted to 1980 ng·h/mL, the Cmax is 1410 ng/mL and the MRT inf is 78.6 min. In the data set “in vivo” (10 mg/kg), the MRT last stood at 73.2 min, the Tmax amounted to 15 min and the half-life is 81.6 min.

Take `N#CC[C@@H](CCC(F)(F)F)n1cc(-c2ncnc3[nH]ccc23)cn1` [Compound 6-1]: 311 nM corresponded to half-maximal inhibition against JAK3 (IC50). In “in vivo” (10 mg/kg), this molecule had an AUC(0-inf) of 9240 ng·h/mL, an AUC(0-t) of 9230 ng·h/mL, a Cmax of 6320 ng/mL and an MRT inf of 69 min. In “in vivo” (10 mg/kg), the MRT last is 68.4 min, the Tmax is 15 min and the half-life is 50.4 min.

Turning to `N#CC[C@H](CCC(F)(F)F)n1cc(-c2ncnc3[nH]ccc23)cn1` [Compound 6-2], at JAK3, 116 nM corresponded to half-maximal inhibition (IC50). For the same molecule, in “in vivo” (10 mg/kg), the AUC(0-inf) is 4770 ng·h/mL, the AUC(0-t) was found to be 4760 ng·h/mL, the Cmax worked out at 6770 ng/mL and the MRT inf came to 36.6 min. In the data set “in vivo” (10 mg/kg), the MRT last is 36 min, the Tmax turned out to be 4.8 min and the half-life is 44.4 min.

`N#CCC(C1CC(F)(F)C1)n1cc(-c2ncnc3[nH]ccc23)cn1` (centres unmarked) [Compound 7]: the IC50 against JAK3 worked out at 479 nM. Further, in “in vivo” (10 mg/kg), the AUC(0-inf) is 1660 ng·h/mL, the AUC(0-t) is 1660 ng·h/mL, the concentration peaked (Cmax) at 3190 ng/mL and the MRT inf was 30.6 min. In the data set “in vivo” (10 mg/kg), the MRT last was 29.4 min, the Tmax was 4.8 min and the half-life is 89.4 min.

With `CC(C)(C(CC#N)n1cc(-c2ncnc3[nH]ccc23)cn1)C(F)(F)F` (centres unmarked) [Compound 8], on JAK3, the IC50 turned out to be 419 nM.

Regarding `N#CCC(n1cc(-c2ncnc3[nH]ccc23)cn1)C1(C(F)(F)F)CCC1` (centres unmarked) [Compound 9], it took 401 nM to reach half-maximal inhibition against JAK3 (IC50).

`N#CC[C@H](C1CCCC1)n1cc(-c2ncnc3[nH]ccc23)cn1` [Ruxolitinib, reference compound]: in the data set “in vivo” (5 mg/kg), the AUC(0-inf) was 580 ng·h/mL, the AUC(0-t) was 578 ng·h/mL, the Cmax stood at 893 ng/mL and the MRT inf is 42.6 min. Also, in “in vivo” (5 mg/kg), the MRT last was 42 min, the Tmax worked out at 7.8 min and the half-life is 30 min.
